Reference: patent publication US9999624B2, “Combination Alzheimer therapy using anti-N3pGlu Abeta antibodies + a BACE inhibitor” (Eli Lilly and Company, priority 2014, dated 2018)
Where a name gives a salt, the structure may show the parent alone. Read-outs that look alike come from different tables or passages of the source.

Assays:
young female PDAPP mice = assay: In Vivo Inhibition of Beta-Secretase (brain Abeta 1-x reduction); parameters: species or system mouse; conditions: for CNS penetration: inferred from brain Abeta lowering after oral dose; for Abeta 1-x peptide levels reduced in brain cortex / Abeta 1-x peptide levels reduced in brain hippocampus: 3 hours after administration, compared to vehicle-treated mice
From the text: Several animal models, including mouse, guinea pig, dog, and monkey, may be used to screen for inhibition of beta-secretase activity in vivo following compound treatment Animals used in this invention can be wild type, transgenic, or gene knockout animals. For example, the PDAPP mouse model, prepared as described in Games et al., Nature 373, 523-527 (1995), and other non-transgenic or gene knockout animals are useful to analyze in vivo inhibition of Abeta and sAPPbeta production in the presence of inhibitory compounds. Generally, 2 to 12 month old PDAPP mice, gene knockout mice or non-transgenic animals are administered compound formulated in vehicles, such as corn oil, cyclodextran, phosphate buffers, […]®, or other suitable vehicles. One to twenty-four hours following the administration of compound, animals are sacrificed, and brains as well as cerebrospinal fluid and plasma are removed for analysis of Abetas, C99, and sAPP fragments. (See May, et al., Journal of Neuroscience, 31, 16507-16516 (2011)). For standard in vivo pharmacology studies, animals are dosed with various concentrations of compound and compared to a vehicle-treated control group dosed at the same time. For some time course studies, brain tissue, plasma, or cerebrospinal fluid is obtained from selected animals, beginning at time 0 to establish a baseline. Compound or appropriate vehicle is administered to other groups and sacrificed at various times after dosing. Brain tissue, plasma, or cerebrospinal fluid is obtained from selected animals and analyzed for the presence of APP cleavage products, including Abeta peptides, sAPPbeta, and other APP fragments, for example, by specific sandwich ELISA assays. At the end of the test period, animals are sacrificed and brain tissues, plasma, or cerebrospinal fluid are analyzed for the presence of Abeta peptides, C99, and sAPPbeta, as appropriate. Brain tissues of APP transgenic animals may also be analyzed for the amount of beta-amyloid plaques following compound treatment. “Abeta 1-x peptide” as used herein refers to the sum of Abeta species that begin with […]-terminus greater than residue 28. This detects the majority of Abeta species and is often called “total Abeta”.

human BACE1(1-460):Fc = human BACE1(1-460):Fc (Homo sapiens (Human), UniProt P56817); assay: BACE1 FRET Assay; type: biochemical; conditions: purified recombinant huBACE1:Fc, FRET substrate, pH 4.6; Mean ± SEM
Sequence of human BACE1(1-460):Fc (P56817 22-460): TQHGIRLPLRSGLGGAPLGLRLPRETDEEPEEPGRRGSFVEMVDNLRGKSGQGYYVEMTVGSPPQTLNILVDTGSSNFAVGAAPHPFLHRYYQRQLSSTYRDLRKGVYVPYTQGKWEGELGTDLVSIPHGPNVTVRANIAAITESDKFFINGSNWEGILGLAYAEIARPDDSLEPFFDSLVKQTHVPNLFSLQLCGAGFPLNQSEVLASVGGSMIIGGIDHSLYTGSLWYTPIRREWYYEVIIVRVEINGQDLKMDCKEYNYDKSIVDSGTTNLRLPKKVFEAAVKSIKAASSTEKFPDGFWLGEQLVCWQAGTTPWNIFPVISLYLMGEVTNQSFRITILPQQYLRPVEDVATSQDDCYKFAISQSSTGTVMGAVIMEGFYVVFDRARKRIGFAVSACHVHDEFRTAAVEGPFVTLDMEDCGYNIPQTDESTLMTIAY

[1] = tested on: primary cortical neurons from PDAPP transgenic embryonic mice; assay: PDAPP Primary Neuronal Assay (Abeta ELISA); type: cell-based; conditions: Mus musculus, Primary cortical neuron, 24 h, Mean ± SEM

In the case of `Cl.NC1=N[C@@]2(c3cccc(NC(=O)c4ccc(F)cn4)c3)CN(c3ncc(F)cn3)C[C@H]2CS1` [Example 1, N-{3-[(4aR,7aS)-2-Amino-6-(5-fluoropyrimidin-2-yl)-4a,5,6,7-tetrahydropyrrolo[3,4-d][1,3]thiazin-7a(4H)-yl]phenyl}-5-fluoropyridine-2-carboxamide hydrochloride], the CNS penetration (young female PDAPP mice) is reported as “demonstrate CNS penetration” and the IC50 (human BACE1(1-460):Fc) is reported as 610 pM.
With `COc1cnc(C(=O)Nc2ccc(F)c([C@]34CN(c5ncc(F)cn5)C[C@H]3CSC(N)=N4)c2)cn1.Cl` [Example 4, N-[3-[(4aR,7aS)-2-Amino-6-(5-fluoropyrimidin-2-yl)-4,4a,5,7-tetrahydropyrrolo[3,4-d][1,3]thiazin-7a-yl]-4-fluoro-phenyl]-5-methoxy-pyrazine-2-carboxamide hydrochloride] the “Abeta 1-x peptide levels reduced in brain cortex” value (young female PDAPP mice; 0.3 mg/kg oral dose) was “approximately 28%”, the “Abeta 1-x peptide levels reduced in brain hippocampus” value (young female PDAPP mice; 0.3 mg/kg oral dose) was “approximately 31%” and the “Abeta 1-x peptide levels reduced in brain cortex” value (young female PDAPP mice; 1 mg/kg oral dose) was ~42%. The “Abeta 1-x peptide levels reduced in brain hippocampus” value (young female PDAPP mice; 1 mg/kg oral dose) was ~39%, the “Abeta 1-x peptide levels reduced in brain cortex” value (young female PDAPP mice; 3 mg/kg oral dose) was ~64% and the “Abeta 1-x peptide levels reduced in brain hippocampus” value (young female PDAPP mice; 3 mg/kg oral dose) was ~61%. The CNS penetration (young female PDAPP mice) was “demonstrate CNS penetration”.
With `NC1=N[C@@]2(c3cccc(NC(=O)c4ncc(F)cc4F)c3)CN(c3ncc(F)cn3)C[C@H]2CS1` [Example 7, N-[3-[(4aR,7aS)-2-Amino-6-(5-fluoropyrimidin-2-yl)-4,4a,5,7-tetrahydropyrrolo[3,4-d][1,3]thiazin-7a-yl]phenyl]-3,5-difluoro-pyridine-2-carboxamide hydrochloride] the IC50 (human BACE1(1-460):Fc) was 739 pM.
For `N#Cc1ccc(C(=O)Nc2ccc(F)c([C@]34CN(c5ncc(F)cn5)C[C@H]3CSC(N)=N4)c2)nc1` [Example 8, N-[3-[(4aR,7aS)-2-Amino-6-(5-fluoropyrimidin-2-yl)-4,4a,5,7-tetrahydropyrrolo[3,4-d][1,3]thiazin-7a-yl]-4-fluoro-phenyl]-5-cyano-pyridine-2-carboxamide hydrochloride], the IC50 ([1]; Abeta 1-40 in conditioned media, read-out: PDAPP Neuron A-beta (1-40) ELISA IC50) was 137 pM and the IC50 ([1]; Abeta 1-42 in conditioned media, read-out: PDAPP Neuron A-beta (1-42) ELISA IC50) was 72.5 pM.
